Results on 10 molecules are retold here after patent US7785388B2, “Method for producing stabilized nitrogen compositions” (priority 1999, dated 2010).

A short description of series [1]: Aerobic dissolution activity, visual observation in open glasses of water. The arrangement: White grainy deposit / White rhombic froth / Reactivity/floating / Calcium settlements / Meniscus (white): scale not given here. Format: physicochemical. As to conditions: for Calcium settlements / Evaporation / Meniscus (white) / Particles dissolved / Reactivity/floating / White grainy deposit / White rhombic froth: open air; for pH: open air water solutions. As to the method: Calcium cyanamide fines, homogeneous calcium cyanamide granules, heterogeneous calcium cyanamide/urea granules, calcium cyanamide granules, and urea were added to equal amounts of water in separate glasses and observed over time. Table 12 is a summary of those visual observations and highlights the vast differences between the aerobic dissolution properties and the chemical reactions over time of open air water solutions of CaNCN granules (1), CaNCN fines (2), homogeneous CaNCN/urea granules formed by melting together CaNCN fines and urea (3), heterogeneous CaNCN/urea granules with a calcium cyanamide core and a urea shell (4), and urea (5).

Another series concerns corn. Description: Crop yield after cornfield application. The class given is in vivo. As to conditions: nitrogen 160 lbs/acre for ammonia. The source says:
Nitrate leaching after cornfield applications of 0.5% and 1% heterogeneous calcium cyanamide core/urea shell granules was also followed.

For series [2], the system named is microscopic eelworms (nematodes). Description: Inventor Study, WSU: nematode reduction in vitro. From the text:
For comparison, results of some prior art studies using dry CaNCN application, liquid molecular cyanamide applications, and the results of an experiment using dicyandiamide are also included in Table 10.

A further series deals with Coliform. Description: Coliform numbers in parlor wash manure with 0.2% CaNCN. The class given is cell-based. Conditions: below about 0.2% by weight in manure, within 24-120 hrs.
The next series concerns lettuce seed. Description: Seed emergence in band drenched lettuce and broccoli plots. The class given is in vivo. Conditions: aqueous composition of calcium cyanamide alone as a drench. As to the method:
Yet another test was conducted on lettuce and broccoli plots. […] The rates expressed relevant to strawberry bands were 8 lbs and 16 lbs of nitrogen per acre. […] However, where the drench was allowed to dry for several days before sprinkling, the lettuce seed emergence was reduced 100%. […]

The subject of another series is Verticillium. As to conditions: cited from earlier work.
Another series deals with Phytophthora. Conditions: cited from earlier work.
The subject of another series is weeds. As to conditions: cited from earlier work.
The test system of series [3] is microscopic eelworms (nematodes). As to conditions: not hydrolyzed, cited from earlier work.
The test system is the same in series [4]. As to conditions: 600-1200 lbs/acre, not hydrolyzed, Field Soil, dry; cited from earlier work.
The next series concerns arginine production. Conditions: cited from earlier work; for % Relative Arginine Increase: published data, CaNO3 as baseline.
For series [5] the following is noted: about 25° C.; cited from earlier work.
Series [6] deals with Meloidogyne chitwoodi J2 larvae. The series is described as follows: Meloidogyne chitwoodi J2 larvae killed after application in irrigation water. The class given is in vivo. From the text: This example was done under consultation with Washington State University. Agricultural plots were identified in Washington State.
The subject of series [7] is microscopic eelworms (nematodes). As to conditions: 100 lbs/acre, hydrolyzed + urease, In vitro; cited from earlier work.
In series [8] the test system is microscopic soil eelworms (nematodes). The series is described as follows: Strawberry bed drip irrigation test against methyl bromide, soil eelworms at 12 inch depth. The class given is in vivo. Conditions: methyl bromide in pre-wetted beds. From the text:
As a result of the before mentioned strawberry bed weed responses, the 70/30 composition was compared directly with methyl bromide (MB) during the California Strawberry Commission's annual testing for alternatives to the ozone negative pesticide, which is scheduled to be 70% banned by 2003. Our chosen objective was to replace pre-banded “slow release” nitrogen with stabilized urea/calcium cyanamide compositions at a similar cost per acre and see if we could attain reduction of weeds and diseases similar to methyl bromide.
The urea/calcium cyanamide composition was applied to pre-wetted and preformed beds through drip irrigation tubes, typically 2 of which are laid inside of where two rows of berry plants will be planted on the outside bed edges. Applications of 100 lbs/acre were compared where the calcium cyanamide composition was applied over 1 hour and 2 hour periods to vary the depth and width of its distribution.
Soil samples, taken at a depth of 12″ in bed centers, were sent for analysis by the Commission. […] It is assumed that the pre-wetting of soil required for bed shaping, caused restricted movement of the methyl bromide gas through the soil.

Where [9] appears, read: dry incorporated, 1,000 lbs./acre.
The mark [10] stands for this setting: shank injected and tarped, 350 lbs/acre.

Where two headings read alike, the source gives them in different places.

Regarding `[Ca+2].[N-]=C=[N-]` [(1)Granules, calcium cyanamide], in [1] (1 hour), the Calcium settlements is listed as 0, the Evaporation was 0, the “Meniscus (white)” value worked out at 0 and the Particles dissolved worked out at 0. Besides, in series [1] (1 hour), the Reactivity/floating worked out at 0, the White grainy deposit is given as 0 and the White rhombic froth amounted to 0. Also, in series [1] (24 hours), the Calcium settlements was found to be 0, the Evaporation worked out at 0, the “Meniscus (white)” value turned out to be 0 and the Particles dissolved was determined as 2. Further, in [1] (24 hours), the Reactivity/floating was 2, the White grainy deposit came out at 0 and the White rhombic froth is recorded as 0. In [1] (30 days), the Calcium settlements worked out at 1, the Evaporation is 5, the “Meniscus (white)” value came to 1 and the Particles dissolved was determined as 2. In [1] (30 days), the Reactivity/floating was found to be 4, the White grainy deposit worked out at 2 and the White rhombic froth was 0. For the same molecule, in series [1], the “pH” value is listed as “(1)Granules(12)”.

Take `[Ca+2].[N-]=C=[N-]` [(2)Fines, calcium cyanamide]: in series [1] (1 hour), the Calcium settlements is 0, the Evaporation is 0, the “Meniscus (white)” value is 0 and the Particles dissolved is reported as 2. In addition, in series [1] (1 hour), the Reactivity/floating came to 1, the White grainy deposit is 0 and the White rhombic froth is 0. In series [1] (24 hours), the Calcium settlements amounted to 10, the Evaporation was 0, the “Meniscus (white)” value was determined as 8 and the Particles dissolved came out at 7. Also, in series [1] (24 hours), the Reactivity/floating amounted to 10, the White grainy deposit was found to be 0 and the White rhombic froth is on record as 0. Moreover, in series [1] (30 days), the Calcium settlements is recorded as 10, the Evaporation amounted to 5, the “Meniscus (white)” value is listed as 9 and the Particles dissolved is 8. For the same molecule, in series [1] (30 days), the Reactivity/floating is 10, the White grainy deposit stood at 6 and the White rhombic froth is 0. The “pH” value in series [1] was “(2)Fines(12)”.

Regarding `N` [Ammonia], the Yield with corn (Field 1, 120 lbs/acre for granules) worked out at 180 bushel/acre; in the series with corn (Field 2, 120 lbs/acre for granule) it was 177 bushel/acre.

As for `[Ca+2].[N-]=C=[N-]` [CaNCN, calcium cyanamide], the “Nematode Reduction” value in series [2] (9 lbs/acre in distilled water, hydrolyzed, pH = 12.6, In vitro) was 100%; in series [2] (29 lbs/acre in tap water, hydrolyzed, pH = 10, In vitro) it was 0%; in [3] (1200-2400 equiv. lbs/acre, Wet pot soil), 41-66%; in series [3] (1200-2400 lbs/acre, Dry), 4-8%; in [3] (1200-2400 lbs/acre, Wet), 42-54%; in series [4] it was 0%. The “reductions in coliform bacteria” value with Coliform was found to be 99.999%. The entries for the “lettuce seed emergence reductions” value in the series with lettuce seed (5 lbs CaNCN N/acre) and in the series on lettuce seed (10 lbs CaNCN N/acre) were 85% and 100%, respectively. Further, the “reduction of Verticillium” value with Verticillium (setting [9]) is listed as 8%. Further, in the series with Phytophthora (setting [9]), the “reduction of Phytophthora” value is given as 0%. For the same molecule, the weeds reduced in the series on weeds (dry surface incorporation of 1000 lbs/acre followed by 0.5 acre inch sprinkler water) is reported as 95%. The “% Relative Arginine Increase” value with arginine production is 639%.

Turning to `O=[N+]([O-])[O-].O=[N+]([O-])[O-].[Ca+2]` [CaNO3-baseline, calcium nitrate], the “% Relative Arginine Increase” value in the series on arginine production is on record as 0%.

As for `N#CN=C(N)N` [Dicyan-Diamide, dicyandiamide, reference compound], the “Nematode Reduction” value in series [2] (102 lbs/acre in distilled water, pH = 8, In vitro) worked out at 0%.

Take `N#CN` [H2NCN liquid, molecular cyanamide]: the acid dissociation constant entry in [5] was “about 5.42×10^−11”. Moreover, the “Nematode Reduction” value in series [3] (112 lbs/acre, In vitro) is 100%. Also, the “stimulation of arginine production relative to urea” value in the series with arginine production (in plants) was 20 times.

As to `[Na+].[OH-]` [NaOH, sodium hydroxide], the “Nematode Reduction” value in series [2] (35 lbs/acre in tap water, pH = 10, In vitro) is given as 99%. Besides, the “Final pH” value in series [6] (35 lbs/acre at 1/2 inch depth) is reported as 10.6; in series [6] (70 lbs/acre at 1/2 inch depth), 11.4; in series [6] (105 lbs/acre at 1/2 inch depth), 11.7. Moreover, the “J2 nema - % killed” value in [6] (35 lbs/acre at 1/2 inch depth) was 98.6%; in series [6] (70 lbs/acre at 1/2 inch depth), 100%; in [6] (105 lbs/acre at 1/2 inch depth), 100%.

Consider `NC(N)=O` [Urea, urea, reference compound], for which, in series [1] (1 hour), the Calcium settlements was determined as 0, the Evaporation is 0, the “Meniscus (white)” value is 0 and the Particles dissolved is 0. For the same molecule, in series [1] (1 hour), the Reactivity/floating is given as 0, the White grainy deposit is 0 and the White rhombic froth came to 0. In addition, in series [1] (24 hours), the Calcium settlements is on record as 0, the Evaporation is 0, the “Meniscus (white)” value was 0 and the Particles dissolved was 9. Also, in series [1] (24 hours), the Reactivity/floating is given as 0, the White grainy deposit is 0 and the White rhombic froth is 0. Besides, in [1] (30 days), the Calcium settlements came to 0, the Evaporation was found to be 4, the “Meniscus (white)” value came to 0 and the Particles dissolved stood at 10. Also, in series [1] (30 days), the Reactivity/floating was found to be 0, the White grainy deposit amounted to 0 and the White rhombic froth was determined as 0. Also, the “pH” value in series [1] was “(5)Urea(8)”. The “Nematode Reduction” value in series [7] is reported as 100%. The “% Relative Arginine Increase” value in the series on arginine production is 69%.

As for `CBr` [methyl bromide, reference compound], the “reduction of microscopic soil eelworms (nematodes)” value in series [8] is “completely ineffective”. Besides, the “reduction of Verticillium” value in the series with Verticillium (setting [10]) is 73%. Further, the “reduction of Phytophthora” value in the series on Phytophthora (setting [10]) is recorded as 100%. Moreover, the weeds reduced with weeds (shank injected followed by tarping, 350 lbs/acre) is on record as 85%.
